This note sets out measurements from PubChem BioAssay AID2747 (The Scripps Research Institute Molecular Screening Center, 2010).

Active and inactive are the calls of the source. How the calls were made is not given here.

The target in the experiment is Luciferin 4-monooxygenase (Photinus pyralis) (UniProt P08659). The experiment can be described thus: firefly luciferase inhibitors, late-stage follow-up, artefact control for HSP90 inhibitor project, biochemical, luminescence, dose response (AID 2747). To be noted: purified firefly luciferase, counterscreen.
Chain of Luciferin 4-monooxygenase (Photinus pyralis) (P08659 whole entry, looked up): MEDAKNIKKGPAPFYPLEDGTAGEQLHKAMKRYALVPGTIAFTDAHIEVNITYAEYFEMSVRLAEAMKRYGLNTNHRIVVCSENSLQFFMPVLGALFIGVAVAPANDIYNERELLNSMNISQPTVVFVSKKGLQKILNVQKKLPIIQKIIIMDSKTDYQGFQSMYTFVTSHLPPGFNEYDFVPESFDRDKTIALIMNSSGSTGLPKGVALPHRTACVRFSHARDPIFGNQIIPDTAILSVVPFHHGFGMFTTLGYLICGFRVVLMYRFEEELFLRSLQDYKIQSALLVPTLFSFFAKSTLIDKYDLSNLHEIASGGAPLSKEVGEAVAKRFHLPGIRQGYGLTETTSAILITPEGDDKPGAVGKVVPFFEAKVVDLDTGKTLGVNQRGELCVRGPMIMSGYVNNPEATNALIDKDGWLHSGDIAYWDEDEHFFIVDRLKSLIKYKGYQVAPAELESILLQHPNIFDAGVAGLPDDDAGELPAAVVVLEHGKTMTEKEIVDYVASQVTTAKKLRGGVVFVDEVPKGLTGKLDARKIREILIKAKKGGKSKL
A word on the IC50: it is the point on the concentration scale where inhibition reaches its midpoint. Regarding `CCOC(=O)c1csc(NC(=O)c2cc3ccccc3o2)n1`, the IC50 is > 60 µM (inactive).

Turning to `COc1ccccc1NC(=O)c1coc(=O)c(Br)c1`, the IC50 was > 60 µM (inactive).

Consider `Cc1c(-c2nc(-c3ccc(C(C)(C)C)cc3)no2)n(C)oc1=O`, for which the IC50 is > 60 µM (inactive).

`CCOC(=O)C1=C(c2ccc(OC)cc2)C(=O)c2ccccc2C1=O`: the IC50 is > 60 µM (inactive).

As for `Cc1cc(NO)nc(-c2ccc(Br)cc2)n1`, the IC50 is > 60 µM (inactive).

On to `COC(=O)c1ccccc1OCCCOc1ccc(C)cc1OC`, for which the IC50 is > 60 µM (inactive).

`CC(=O)Nc1ccccc1OCC(=O)c1cc(C)n(Cc2cccs2)c1C`: the IC50 is > 60 µM (inactive).

Consider `COc1cc(C=NNc2ccc(Cl)c(C(=O)O)c2)ccc1OC(=O)c1ccc(F)cc1`, for which the IC50 was > 60 µM (inactive).

Regarding `Cc1c(-c2nc(-c3ccc(C(F)(F)F)cc3)no2)n(C)oc1=O`, the IC50 is > 60 µM (inactive).

Turning to `CCc1ccc(OCc2ccc(C(=O)OC)o2)cc1`, the IC50 was > 60 µM (inactive).
